For ten molecules, IC50 and inhibition results are on record in patent publication US10144742B2 (Millennium Pharmaceuticals, Inc., priority 2014, dated 2018).

For experiment [1], the target named is hNAMPT protein (Homo sapiens (Human), UniProt P43490). Briefly: NAMPT enzyme assay (TR-FRET/HTRF, BodiPY ligand, anti 6His-Tb). Conditions: for IC50: NAMPT IC50 range class, read-out: IC50; for inhibition at 1 µM: compound concentration 1 μM, read-out: Percent Inhibition. The class given is binding. The text has this: As discussed above, the invention provides compounds that are useful as inhibitors of the enzyme NAMPT. The NAMPT inhibition of a compound of the invention can be measured using a variety of methods known in the art. For example, the ability of a compound of the invention to inhibit NAMPT enzyme activity can be measured using a homogeneous time resolved fluorescence (HTRF) assay using hNAMPT protein and anti 6His-Tb in buffer treated with a compound of the invention (or control e.g., DMSO) and BodiPY ligand. The TR-FRET signal can be measured using a high throughput microplate reader (e.g., Pherastar). Excitation can be carried out at 320 nm. The percent inhibition value at a single concentration of compound of the invention can be calculated relative to a control treated sample. A concentration response curve can be generated for each compound of the invention and the curve fitted to generate an IC50 value. […] Cat. No. […] To this solution is added test compounds or vehicle control (DMSO) and BodiPY ligand (structure below). The plate is shaken for 1-2 min, sealed and incubated for 1 hour at rt in the dark. The TR-FRET signal is measured using BMG Pherastar (Lanthascreen protocol on BMG Pherastar). Excitation was carried out at 320 nm, and the ratio of emission of BodiPY (520 nm) to terbium (486 nm) was determined. Concentration response curves are generated by calculating the excitation increase in test compound-treated samples relative to DMSO-treated controls. For the assay method described above, test compound percent inhibition values at a single concentration are calculated relative to control (DMSO) treated samples. Compound concentration response curves are fitted to generate IC50 values from those curves. One skilled in the art will appreciate that these values generated either as percentage inhibition at a single concentration or IC50 values are subject to experimental variation.

Experiment [2] has as its system PC3 cells. Briefly: PC3 growth inhibition (Cell-titer glo, 72 hours). The class given is cell-based. Conditions: Homo sapiens, PC-3, PC3 cells, 72 hours, Cell-titer glo, read-out: Percent Inhibition (PC3 growth inhibition); for inhibition at 1 µM: compound concentration 1 μM. Here is the method:
The ability of a compound of the invention to inhibit the growth of cells can be measured using a variety of methods known in the art. For example, the ability of a compound of the invention to inhibit the growth of PC3 cells can be measured. PC3 cells can be plated and incubated overnight under CO2. For each measurement, a compound of the invention (or vehicle e.g., DMSO) can be diluted with AIM serum free medium and added to the cell plate. The cell plate can then be incubated for 72 h under CO2. Cell-titer glo solution can be added and the plates can be incubated protected from light and the amount of luminescences can be measured. Concentration response curves can be generated by calculating the luminescence increase in test compound treated samples relative to DMSO-treated controls. Percentage remaining viability values at a single concentration can be measured. Growth inhibition (GI50) or cell viability (LD50) values can be determined from those curves.
Compounds of the invention were assayed to measure PC3 growth inhibition at a concentration of 1 μM or 1.667 μM (Table 3). To measure PC3 growth inhibition, PC3 cells that were maintained in PRMI1640 growth medium (Life Technologies; Cat. No. 11875) at 37° C. under 5% CO2 are trypsinized and diluted at a density of 8×10^4 cells/ml, 25 ul per well of cells and plated in 384-well black tissue culture plate. The cells are incubated overnight at 37° C. under 5% CO2. For each measurement, a test compounds or vehicle control (DMSO) are diluted with AIM serum free medium and added to the cell plate. Incubate for 72 hours at 37° C. under 5% CO2. 25 μl Cell-titer glo solution (Promega; Cat. No. G8462) is added and the cell plates are incubated for 10 minutes protected from light. The luminescence is measured. Concentration response curves are generated by calculating the luminescence increase in test compound-treated samples relative to DMSO-treated controls. Percentage remaining viability values at a single concentration, growth inhibition (GI50) or cell viability (LD50) values are determined from those curves. One skilled in the art will appreciate that these values are subject to experimental variation.

A word on the IC50: it is the concentration that inhibits the measured activity by half. As a reminder, the inhibition is the drop in the measured response relative to a control, in per cent.

Sequence of hNAMPT protein (P43490 whole entry): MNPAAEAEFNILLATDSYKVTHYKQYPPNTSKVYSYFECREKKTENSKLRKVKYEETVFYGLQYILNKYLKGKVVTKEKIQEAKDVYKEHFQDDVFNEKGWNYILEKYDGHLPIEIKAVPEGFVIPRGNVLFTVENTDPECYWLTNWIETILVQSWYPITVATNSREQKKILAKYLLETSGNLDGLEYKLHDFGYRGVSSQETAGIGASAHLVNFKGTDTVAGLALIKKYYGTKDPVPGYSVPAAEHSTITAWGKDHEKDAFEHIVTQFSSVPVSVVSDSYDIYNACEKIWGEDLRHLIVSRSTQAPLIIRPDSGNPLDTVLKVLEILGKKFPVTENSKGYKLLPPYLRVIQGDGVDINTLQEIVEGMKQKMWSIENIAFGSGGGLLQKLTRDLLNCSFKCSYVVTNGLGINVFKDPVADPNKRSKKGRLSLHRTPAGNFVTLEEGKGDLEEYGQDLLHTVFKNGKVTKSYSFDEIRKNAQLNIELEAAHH

Consider `O=C(c1ccc2nc(-c3ccc(F)cc3)c(-c3ccc(F)cc3)nc2c1)N1CCn2nncc2C1` [Compound I-28, [2,3-bis(4-fluorophenyl)quinoxalin-6-yl](6,7-dihydro[1,2,3]triazolo[1,5-a]pyrazin-5(4H)-yl)methanone], for which, in experiment [1], the IC50 is 2000 to 10000 nM and the inhibition at 1 µM was 19%. The inhibition at 1 µM in experiment [2] stood at 94%.
With `O=C(c1ccc2nc(-c3ccc(F)cc3)c(-c3ccc(F)cc3)nc2c1)N1CCC(c2cccnc2)C1` (stereo not drawn) [Compound I-29, [2,3-bis(4-fluorophenyl)quinoxalin-6-yl][3-(pyridin-3-yl)pyrrolidin-1-yl]methanone], in experiment [1], the half-maximal inhibitory concentration (IC50) was in the range of 2000 to 10000 nM and the inhibition at 1 µM came out at 36%. In addition, the inhibition at 1 µM in experiment [2] is 96%.
On to `O=C(NCCCn1ccnc1)c1ccc2nc(N3CCC4(CC3)COC4)c(-c3ccccc3)nc2c1` [Compound I-30, N-[3-(1H-imidazol-1-yl)propyl]-2-(2-oxa-7-azaspiro[3.5]non-7-yl)-3-phenylquinoxaline-6-carboxamide], for which, in experiment [1], the IC50 lay in the range of 100 to 500 nM and the inhibition at 1 µM came to 83%. In experiment [2], the inhibition at 1 µM was -7%.
On the same counts, the results for `CC1(C)CN(c2nc3ccc(C(=O)NCCCn4ccnc4)cc3nc2-c2ccccc2)CCO1` [Compound I-31, 2-(2,2-dimethylmorpholin-4-yl)-N-[3-(1H-imidazol-1-yl)propyl]-3-phenylquinoxaline-6-carboxamide] are under 100 nM, 89% and -7%.
On the same counts, the results for `O=C(NCCCc1cccnc1)c1ccc2nc(-c3ccc(F)cc3)c(-c3ccc(F)cc3)nc2c1` [Compound I-32, 2,3-bis(4-fluorophenyl)-N-[3-(pyridin-3-yl)propyl]quinoxaline-6-carboxamide] are 100 to 500 nM, 78% and -5%.
As to `Cn1cnc2c1CN(C(=O)c1ccc3nc(-c4ccc(F)cc4)c(-c4ccc(F)cc4)nc3c1)CC2` [Compound I-33, [2,3-bis(4-fluorophenyl)quinoxalin-6-yl](3-methyl-3,4,6,7-tetrahydro-5H-imidazo[4,5-c]pyridin-5-yl)methanone], in experiment [1], the IC50 fell in the range of 2000 to 10000 nM and the inhibition at 1 µM was determined as 20%. Besides, in experiment [2], the inhibition at 1 µM was 92%.
For `C[C@@H]1CN(c2nc3cc(C(=O)NCCCn4ccnc4)ccc3nc2-c2ccccc2)C[C@H](C)O1` [Compound I-34, cis-3-[(2R,6S)-2,6-dimethylmorpholin-4-yl]-N-[3-(1H-imidazol-1-yl)propyl]-2-phenylquinoxaline-6-carboxamide], in experiment [1], the IC50 lay within 1000 to 2000 nM and the inhibition at 1 µM was determined as 47%. The inhibition at 1 µM in experiment [2] is -6%.
As for `O=C(NCCCc1c[nH]cn1)c1ccc2nc(N3CCOCC3)c(-c3ccc(F)cc3)nc2c1` [Compound I-35, 3-(4-fluorophenyl)-N-[3-(1H-imidazol-4-yl)propyl]-2-(morpholin-4-yl)quinoxaline-6-carboxamide], in experiment [1], the IC50 was under 100 nM and the inhibition at 1 µM is 90%. Moreover, the inhibition at 1.667 µM in experiment [2] (compound concentration 1.667 μM) worked out at 2%.
As for `COc1ccccc1-c1nc2cc(C(=O)NCCCn3ccnc3)ccc2nc1-c1ccccc1` [Compound I-36, N-[3-(1H-imidazol-1-yl)propyl]-3-(2-methoxyphenyl)-2-phenylquinoxaline-6-carboxamide], in experiment [1], the half-maximal inhibitory concentration (IC50) is 100 to 500 nM and the inhibition at 1 µM worked out at 51%. Also, the inhibition at 1 µM in experiment [2] stood at 1%.
On the same counts, the results for `O=C(NCCCn1ccnc1)c1ccc2nc(N3CC4CC3CO4)c(-c3ccccc3)nc2c1` (stereo not drawn) [Compound I-37, N-[3-(1H-imidazol-1-yl)propyl]-2-(2-oxa-5-azabicyclo[2.2.1]hept-5-yl)-3-phenylquinoxaline-6-carboxamide] are 500 to 1000 nM, 65% and -6%.
